Assay results reported in US9051310B2, “Nicotinamide derivative or salt thereof” (FUJIFILM Corporation, priority 2011, dated 2015).
Structures can show the parent of a compound that is named as a salt.

Experiments:
[1] = molecular target: T1, glutathione S-transferase (GST)-linked full-length human Syk protein (Homo sapiens, UniProt P43405); test: Syk enzyme assay; type: biochemical; settings: 0.83 nM Syk, time-resolved fluorescence; read-out: IC50 of Syk-inhibitory activity
T1 construct: glutathione S-transferase (GST)-linked full-length human Syk protein; purchased Carna Biosciences; host or cells: Baculovirus expression system
Outline: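 Phosphotyrosine on a biotin-peptide substrate (0.5 μM) was read by time-resolved fluorescence at 615 and 665 nm with Eu-anti-pTyr antibody and APC-streptavidin after 1 h EDTA stop.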

[2] = test system: mouse thrombocytopenia induced by anti-mouse CD41 antibody; test: Mouse thrombocytopenia model; type: in vivo; settings: Platelet, female BALB/c mice, 50 mg/kg 1 hour before anti-CD41 antibody, blood sampling 4 hours after antibody, read-out: improvement of platelet count compared with the control group
Method: Test compounds were tested to examine effects upon mouse thrombocytopenia. Each test compound (50 mg/kg) was administered to 5- to 7-week-old female BALB/c mice (Charles River Laboratories Japan, Inc.). One hour thereafter, an anti-mouse CD41 ([…]) antibody (SCB) (1 μg (200 μl)) was intravenously administered to each mouse so as to induce thrombocytopenia. Four hours after administration of the anti-CD41 antibody, blood sampling from the postcava was performed. The platelet count was determined using an automated hematology analyzer.

[3] = test system: THP-1 cells (TNFα secretion on human IgG-coated plate); test: TNFα generation assay; type: cell-based; settings: IFN-γ differentiated THP-1 cells, 7 hours, AlphaLISA, read-out: IC50 of TNFα generation inhibitory activity
Outline: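 THP-1 cells were differentiated with 10 ng/ml IFN-γ for 2 days, then preincubated with compound for 30 min at room temperature. They were then plated at 5×10^4 cells/well on plates coated with human IgG (10 μg/ml). TNFα secreted over 7 h of culture was quantified by AlphaLISA.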

[4] = test system: rat type II collagen arthritis; test: Rat type II collagen-induced arthritis; type: in vivo; settings: female Lewis rats, oral administration 10 mg/kg/day, Day 7 to Day 20 once daily, Student's t-test
Method: The compounds were tested to examine effects upon rat type II collagen arthritis. Equivalent volumes of 0.05 mol/L acetic acid in which a 3 mg/mL bovine type II collagen solution (Collagen Gijutsu Kenshu-Kai) had been dissolved and Freund's incomplete adjuvant (Wako Pure Chemical Industries, Ltd.) were mixed to prepare an emulsion. A portion of the emulsion (0.5 ml) was intradermally injected into the tail bases of 6- to 8-week-old female Lewis rats (Charles River Laboratories Japan, Inc.) (Day 0). Each rat was subjected to the same treatment on Day 7 after the initial inoculation so as to induce arthritis. Each test compound was orally administered from Day 7 to Day 20 once daily. At a given time during the period from Day 7 to Day 21, the rat hindlimb volume was determined using a plethysmometer (UGO BASILE), and the result was designated as an arthritis index.

[5] = test system: THP-1 cells (phagocytosis of opsonized Escherichia coli); test: Antibody-dependent phagocytosis assay; type: cell-based; settings: Homo sapiens; IFNγ differentiated THP-1 cells, opsonized pHrodo Escherichia coli, 3 hours; read-out: IC50 upon phagocytosis inhibition
Outline: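 THP-1 cells were differentiated to macrophage-like cells with 10 ng/ml IFNγ for 2 days, then treated with test compound for 30 min at room temperature. pHrodo-labeled E. coli opsonized with anti-E. coli antibody were added for 3 h at 37° C. Phagocytosis by viable (Calcein AM-positive) cells was quantified by imaging.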

[6] = test system: 191 types of kinases excluding Syk; test: Selectivity of kinase inhibition (Profiler Pro kits); type: biochemical; settings: test compound 100 nM; 191 kinases excluding Syk
Method: The concentrations of test compounds were adjusted to 100 nM. The test compounds were examined using Profiler Pro kits (Caliper) in terms of activity against each of 191 types of kinases excluding Syk.

SMILES	IC50 [1] [nM]	IC50 [3] [nM]	IC50 [5] [nM]	number of kinases other than Syk with kinase inhibitory rate of 75% or more [6]	change in vivo at 50 mg/kg [2] [%]	hindlimb swelling on Day 20 compared with the control group [4]
CN(C)c1nn(C)c2c(F)cc(Nc3nc(N[C@@H]4CCCC[C@@H]4N)c(F)cc3C(N)=O)cc12 [Example 2-184, 6-(((1R,2S)-2-aminocyclohexyl)amino)-2-((3-(dimethylamino)-7-fluoro-1-methyl-1H-indazole-5-yl)amino)-5-fluoronicotinamide hydrochloride]	< 10	65 to 130	< 1000		≥ 50	significantly inhibited hindlimb swelling
CCC[C@@H](Nc1nc(Nc2ccc3c(c2)c(N(C)C)nn3C)c(C(N)=O)cc1F)[C@H](C)N [Example 2-87, 6-(((2S,3R)-2-aminohexan-3-yl)amino)-2-((3-(dimethylamino)-1-methyl-1H-indazol-5-yl)amino)-5-fluoronicotinamide]	< 10	130 to 200	1000 to 3000		≥ 50	
COCCn1ncc2cc(Nc3nc(N[C@H](C4CC4)[C@H](C)N)c(F)cc3C(N)=O)ccc21 [Example 2-265, 6-(((1R,2S)-2-amino-1-cyclopropylpropyl)amino)-5-fluoro-2-((1-(2-methoxyethyl)-1H-indazol-5-yl)amino)nicotinamide]	< 10	65 to 130	< 1000		≥ 50	
CC[C@H](N)[C@@H](C)Nc1nc(Nc2cccc3c2cnn3CC)c(C(N)=O)cc1F [Example 2-100, 6-(((2R,3S)-3-aminopentan-2-yl)amino)-2-((1-ethyl-1H-indazol-4-yl)amino)-5-fluoronicotinamide]	< 10	130 to 200	1000 to 3000		≥ 50	
COCCn1ncc2c(Nc3nc(N[C@@H]4CCCC[C@@H]4N)c(F)cc3C(N)=O)cccc21 [Example 2-302, 6-(((1R,2S)-2-aminocyclohexyl)amino)-5-fluoro-2-((1-(2-methoxyethyl)-1H-indazol-4-yl)amino)nicotinamide]	< 10	130 to 200	1000 to 3000		≥ 50	

The next lines start with results.

IC50 [1] [nM]	IC50 [3] [nM]	IC50 [5] [nM]	number of kinases other than Syk with kinase inhibitory rate of 75% or more [6]	SMILES	change in vivo at 50 mg/kg [2] [%]	hindlimb swelling on Day 20 compared with the control group [4]
10 to 50	130 to 200	1000 to 3000	8 types of kinases	C[C@H](N)[C@H](Nc1nc(Nc2cnc(N3CCOCC3)c(F)c2)c(C(N)=O)cc1F)C1CC1 [Example 2-76, 6-(((1R,2S)-2-amino-1-cyclopropylpropyl)amino)-5-fluoro-2-((5-fluoro-6-morpholinopyridin-3-yl)amino)nicotinamide]	≥ 50	significantly inhibited hindlimb swelling
< 10	65 to 130	1000 to 3000		COC[C@@H](Nc1nc(Nc2cc(OC)cc(OC)c2)c(C(N)=O)cc1F)[C@H](C)N [Example 2-267, 6-(((2S,3S)-3-amino-1-methoxybutan-2-yl)amino)-2-((3,5-dimethoxyphenyl)amino)-5-fluoronicotinamide]	≥ 50	
< 10	65 to 130	< 1000		CN(C)c1nn(C)c2ccc(Nc3nc(N[C@@H]4CCCC[C@@H]4N)c(F)cc3C(N)=O)cc12 [Example 2-1, 6-(((1R,2S)-2-aminocyclohexyl)amino)-2-((3-(dimethylamino)-1-methyl-1H-indazol-5-yl)amino)-5-fluoronicotinamide]	≥ 50	significantly inhibited hindlimb swelling
< 10	65 to 130	< 1000		COc1cc(Nc2nc(N[C@H](C3CCC3)[C@H](C)N)c(F)cc2C(N)=O)cc(OC)c1 [Example 2-28]	≥ 50	
< 10	65 to 130	< 1000		CCn1ncc2c(Nc3nc(N[C@@H]4CCOC[C@@H]4N)c(F)cc3C(N)=O)cccc21 [Example 2-330, 6-(((3R,4R)-3-aminotetrahydro-2H-pyran-4-yl)-amino)-2-((1-ethyl-1H-indazol-4-yl)amino)-5-fluoronicotinamide]	≥ 50	
< 10	130 to 200	< 1000		CCC[C@@H](Nc1nc(Nc2cnc3c(c2)c(OC)nn3C)c(C(N)=O)cc1F)[C@H](C)N [Example 2-252, 6-(((2S,3R)-2-aminohexan-3-yl)amino)-5-fluoro-2-((3-methoxy-1-methyl-1H-pyrazolo[3,4-b]pyridin-5-yl)amino)nicotinamide]	≥ 50	
10 to 50	130 to 200	1000 to 3000		COC[C@@H](Nc1nc(Nc2cc(F)c3c(c2)c(N(C)C)nn3C)c(C(N)=O)cc1F)[C@H](C)N [Example 2-193, 6-(((2S,3S)-3-amino-1-methoxybutan-2-yl)amino)-2-((3-(dimethylamino)-7-fluoro-1-methyl-1H-indazol-5-yl)amino)-5-fluoronicotinamide]	≥ 50	
